Laboratory results as given in patent publication US7767659B2, “Synthesis of naturally occurring ecteinascidins and related compounds” (Pharma Mar, S.A., priority 2002, dated 2010).
Where two headings read alike, the source gives them in different places.

Assays:
A-549 = test: cells; details: Homo sapiens, A549, 48 h
Procedure, shortened: (§1)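 Colorimetric SRB read (490 nm) on triplicate wells after 48 h at 37 °C, 5% CO2. Dose range 10 to 10^−8 μg/ml; 5×10^3 cells/well pre-attached 18 h.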

HT-29 = test: cells; details: Homo sapiens, HT-29, 48 h
Procedure, shortened: as §1

LoVo = test: cells; details: Homo sapiens, LoVo, 48 h
Procedure, shortened: as §1

[1] = Inhibition of cells growth by colorimetric assay (SRB); details: human
Procedure, shortened: as §1

DU-145 = test: as above; details: Homo sapiens, DU-145, 48 h
Procedure, shortened: as §1

HMEC1 = test: as above; details: for GI50: Homo sapiens, HMEC-1, 48 h
Procedure, shortened: as §1

IGROV-1 = test: as above; details: Homo sapiens, IGROV-1, 48 h
Procedure, shortened: as §1

IGROV-ET = test: as above; details: Homo sapiens, 48 h
Procedure, shortened: as §1

K-562 = test: as above; details: Homo sapiens, K562, 48 h
Procedure, shortened: as §1

LNCaP = test: as above; details: Homo sapiens, LNCaP, 48 h
Procedure, shortened: as §1

LoVo-Dox = test: as above; details: Homo sapiens, 48 h
Procedure, shortened: as §1

PANC-1 = test: as above; details: Homo sapiens, PANC-1, 48 h
Procedure, shortened: as §1

SK-BR-3 = test: as above; details: Homo sapiens, SK-BR-3, 48 h
Procedure, shortened: as §1

SK-MEL-28 = test: as above; details: Homo sapiens, SK-MEL-28, 48 h
Procedure, shortened: as §1

SK-OV-3 = test: as above
Procedure, shortened: as §1

[2] = H-MEC-1, SRB, 48 hours exposure

Question: What does the source list for `COc1cc2c(cc1O)CCN[C@]21CS[C@@H]2c3c(OC(C)=O)c(C)c4c(c3[C@H](COC1=O)N1C[C@@H]3Cc5cc(C)c(OC)c(O)c5C(C21)N3C)OCO4` (stereo partly drawn) [Et-745]?
Answer: GI50 (A-549; read-out: A549 GI50): 0.743 µM; CC50 (A-549; read-out: A549 LC50): 13.4 µM; IC (TGI) (A-549; read-out: A549 TGI): 4.77 µM; GI50 (HT-29; read-out: HT29 GI50): 0.522 µM; CC50 (HT-29; read-out: HT29 LC50): 13.4 µM; IC (TGI) (HT-29; read-out: HT29 TGI): 2.65 µM; GI50 (LoVo; read-out: LOVO GI50): 5.55 µM; CC50 (LoVo; read-out: LOVO LC50): 13.4 µM; IC (TGI) (LoVo; read-out: LOVO TGI): 13.4 µM; CC50 at 48 h [1]: 13.4 µM; GI50 (DU-145; read-out: DU145 GI50): 0.488 µM; CC50 (DU-145; read-out: DU145 LC50): 13.4 µM; IC (TGI) (DU-145; read-out: DU145 TGI): 2.67 µM; H-MEC-1 TGI (HMEC1; [2]): 3.67E−06 Molar; GI50 (HMEC1; read-out: H-MEC-1 GI50): 0.634 µM; GI50 (IGROV-1; read-out: IGROV GI50): 0.774 µM; CC50 (IGROV-1; read-out: IGROV LC50): 13.4 µM; IC (TGI) (IGROV-1; read-out: IGROV TGI): 3.26 µM; GI50 (IGROV-ET; read-out: IGROV-ET GI50): 3.7 µM; CC50 (IGROV-ET; read-out: IGROV-ET LC50): 13.4 µM; IC (TGI) (IGROV-ET; read-out: IGROV-ET TGI): 8.45 µM; GI50 (K-562; read-out: K562 GI50): 0.884 µM; CC50 (K-562; read-out: K562 LC50): 13.4 µM; IC (TGI) (K-562; read-out: K562 TGI): 3.9 µM; GI50 (LNCaP; read-out: LNCAP GI50): 0.652 µM; CC50 (LNCaP; read-out: LNCAP LC50): 9.81 µM; IC (TGI) (LNCaP; read-out: LNCAP TGI): 2.39 µM; GI50 (LoVo-Dox; read-out: LOVO-DOX GI50): 6.25 µM; CC50 (LoVo-Dox; read-out: LOVO-DOX LC50): 13.4 µM; IC (TGI) (LoVo-Dox; read-out: LOVO-DOX TGI): 13.4 µM; GI50 (PANC-1; read-out: PANC-1 GI50): 1.32 µM; CC50 (PANC-1; read-out: PANC-1 LC50): 13.4 µM; IC (TGI) (PANC-1; read-out: PANC-1 TGI): 9.22 µM; GI50 (SK-BR-3; read-out: SK-BR3 GI50): 0.629 µM; CC50 (SK-BR-3; read-out: SK-BR3 LC50): 13.4 µM; IC (TGI) (SK-BR-3; read-out: SK-BR3 TGI): 3.15 µM; GI50 (SK-MEL-28; read-out: MEL-28 GI50): 0.602 µM; CC50 (SK-MEL-28; read-out: MEL-28 LC50): 8.62 µM; IC (TGI) (SK-MEL-28; read-out: MEL-28 TGI): 2.21 µM; GI50 (SK-OV-3; Homo sapiens, SK-OV-3, 48 h, read-out: SK-OV3 GI50): 1.32 µM; CC50 (SK-OV-3; Homo sapiens, SK-OV-3, 48 h, read-out: SK-OV3 LC50): 13.4 µM; SK-OV3 TGI (SK-OV-3; SK-OV3, SRB, 48 hours exposure): 5.48E−06 Molar

Question: What does the source list for `C=CCN1[C@@H]2c3c(cc(C)c(OC)c3O)C[C@H]1[C@H](C#N)N1C2[C@@H]2SCC(=O)C(=O)OC[C@H]1c1c3c(c(C)c(OC(C)=O)c12)OCO3` (stereo partly drawn) [compound 13]?
Answer: GI50 (A-549; read-out: GI50 A549): 3.94 µM; CC50 (A-549; read-out: LC50 A549): 13.7 µM; IC (TGI) (A-549; read-out: TGI A549): 7.36 µM; GI50 (HT-29; read-out: GI50 HT29): 6.02 µM; CC50 (HT-29; read-out: LC50 HT29): 15.4 µM; IC (TGI) (HT-29; read-out: TGI HT29): 15.4 µM; CC50 at 48 h [1]: 15.4 µM; TGI H-MEC-1 (HMEC1; [2]): 1.54E−05 Molar; GI50 (HMEC1; read-out: GI50 H-MEC-1): 4.74 µM

Question: For `C=CCN1[C@@H]2c3c(cc(C)c(OC)c3OCOCCOC)C[C@H]1[C@H](C#N)N1C2CC2(O)C(=O)C(C)=C3OCOC3=C2[C@@H]1COC(=O)[C@H](CSCC1c2ccccc2-c2ccccc21)NC(=O)OC(C)(C)C` (stereo partly drawn) [compound 10], which GI50 (A-549; read-out: GI50 A549) is on record?
Answer: 1010 µM

Question: And the CC50 (A-549; read-out: LC50 A549)?
Answer: 1010 µM

Question: And the IC (TGI) (A-549; read-out: TGI A549)?
Answer: 1010 µM

Question: What about the GI50 (HT-29; read-out: GI50 HT29) of the same compound?
Answer: 1010 µM

Question: What about the CC50 (HT-29; read-out: LC50 HT29) of the same compound?
Answer: 1010 µM

Question: And the IC (TGI) (HT-29; read-out: TGI HT29)?
Answer: 1010 µM

Question: What about the CC50 at 48 h [1] of the same compound?
Answer: 7.63 µM

Question: What about the “TGI H-MEC-1” value (HMEC1; [2]) of the same compound?
Answer: 4.06E−06 Molar

Question: What about the GI50 (HMEC1; read-out: GI50 H-MEC-1) of the same compound?
Answer: 2.15 µM
